# Reference: US11110149B2, “Method for predicting and monitoring the efficacy of low-dose IL-2 and hydroxychloroquine therapy in autoimmune diseases and its long-term use in autoimmune-related conditions” (KSL BIOMEDICAL INC., priority 2019, dated 2021)
# Tests used:
# SLE and/or pSS = assay: Double-blinded trial of IL-2 plus HCZ regimen: tolerability; type: in vivo, human; conditions: 1 million IU IL-2 SC every other day and HCZ 200 mg Bid PO every day
# Sjögren patients = conditions: 120 Sjögren patients, vs placebo, after 6 months of therapy; cited from earlier work
# lupus patients = conditions: systematic review, high level of evidence; cited from earlier work
structure (smiles),measurement,setting,value
CCN(CCO)CCCC(C)Nc1ccnc2cc(Cl)ccc12 (stereo not shown) [hydroxychloroquine],Tolerability of regimen,SLE and/or pSS,well tolerated
same,"Primary symptoms of dryness, pain, or fatigue",Sjögren patients,no significant improvement
same,Decrease of mortality rates in lupus patients,lupus patients,at least 50%
same,Lupus flares,lupus patients,decreases lupus flares
